# In US8952024B2, “Herbicidal pyrimidone derivatives” (E I du Pont de Nemours and Company, priority 2009, dated 2015):
# Assays:
# Assay type in all cases: in vivo
# [1] = tested on: barnyardgrass (Echinochloa crus-galli); test: Test B flooded paddy test; conditions: for Plant response rating, Barnyardgrass: Flood (flooded paddy test), 13 to 15 days; for Barnyardgrass plant response rating: Flood, 31 g ai/ha, scale 0 to 100 (0 no effect, 100 complete control)
# Outline: (§1)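 Rice, umbrella sedge, ducksalad and barnyardgrass were grown to the 2-leaf stage, flooded to 3 cm, and compound was applied directly to the paddy water, with that depth kept throughout. After 13 to 15 days in the greenhouse, plants were visually rated against controls on a 0 (no effect) to 100 (complete control) scale.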
# [2] = tested on: ducksalad (Heteranthera limosa); test: Test B flooded paddy test; conditions: for Plant response rating, Ducksalad: Flood (flooded paddy test), 13 to 15 days; for Ducksalad plant response rating: Flood, 31 g ai/ha, scale 0 to 100 (0 no effect, 100 complete control)
# Outline: as §1
# [3] = tested on: rice (Oryza sativa); test: Test B flooded paddy test; conditions: for Plant response rating, Rice: Flood (flooded paddy test), 13 to 15 days; for Rice plant response rating: Flood, 31 g ai/ha, scale 0 to 100 (0 no effect, 100 complete control)
# Outline: as §1
# [4] = tested on: umbrella sedge (Cyperus difformis); test: Test B flooded paddy test; conditions: for Plant response rating, Sedge, Umbrella: Flood (flooded paddy test), 13 to 15 days; for Sedge, Umbrella plant response rating: Flood, 31 g ai/ha, scale 0 to 100 (0 no effect, 100 complete control)
# Outline: as §1
# [5] = tested on: wheat (Triticum aestivum); test: Test A pre-/postemergence plant response; conditions: for Wheat plant response rating: visual injury, 0 to 100 scale (0 no effect, 100 complete control), approx. ten days
# Outline: (§2)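 Pre: directed soil spray on seeded loam/sand blend. Post: same formulation (non-phytotoxic solvent + surfactant) on 2–10 cm plants, 1–2 leaf stage. Greenhouse ~10 d; visual injury score 0–100 vs untreated.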
# [6] = tested on: barnyardgrass (Echinochloa crus-galli); test: Test A pre-/postemergence plant response; conditions: for Barnyardgrass plant response rating: visual injury, 0 to 100 scale (0 no effect, 100 complete control), approx. ten days
# Outline: as §2
# [7] = tested on: pigweed (Amaranthus retroflexus); test: Test A pre-/postemergence plant response; conditions: for Pigweed plant response rating: visual injury, 0 to 100 scale (0 no effect, 100 complete control), approx. ten days
# Outline: as §2
# [8] = tested on: giant foxtail (Setaria faberii); test: Test A pre-/postemergence plant response; conditions: for Foxtail, Giant plant response rating: visual injury, 0 to 100 scale (0 no effect, 100 complete control), approx. ten days
# Outline: as §2
# [9] = tested on: large crabgrass (Digitaria sanguinalis); test: Test A pre-/postemergence plant response; conditions: for Crabgrass, Large plant response rating: visual injury, 0 to 100 scale (0 no effect, 100 complete control), approx. ten days
# Outline: as §2
# [10] = tested on: morningglory (Ipomoea spp.); test: Test A pre-/postemergence plant response; conditions: for Morningglory plant response rating: visual injury, 0 to 100 scale (0 no effect, 100 complete control), approx. ten days
# Outline: as §2
# [11] = tested on: corn (Zea mays); test: Test A pre-/postemergence plant response; conditions: for Corn plant response rating: visual injury, 0 to 100 scale (0 no effect, 100 complete control), approx. ten days
# Outline: as §2
# [12] = tested on: velvetleaf (Abutilon theophrasti); test: Test A pre-/postemergence plant response; conditions: for Velvetleaf plant response rating: visual injury, 0 to 100 scale (0 no effect, 100 complete control), approx. ten days
# Outline: as §2
# [13] = 125 g ai/ha, scale 0 to 100, 0 is no effect, 100 is complete control
# [14] = Postemergence, 125 g ai/ha, 0 to 100 scale where 0 is no effect and 100 is complete control
# [15] = Preemergence, 125 g ai/ha, 0 to 100 scale, 0 = no effect, 100 = complete control
# [16] = Preemergence, 500 g ai/ha, 0 to 100 scale, 0 = no effect, 100 = complete control
# [17] = 250 g ai/ha, flooded paddy test, visual rating on 0 to 100 scale (0 no effect, 100 complete control) after 13 to 15 days
# [18] = 62 g ai/ha, scale of 0 to 100 where 0 is no effect and 100 is complete control
smiles,measurement,setting,value
CCc1ccc(-n2c(-c3cccc(Br)c3)ncc(C(=O)C3=C(O)CCCC3=O)c2=O)cc1 [Compound 177],"Plant response rating, Barnyardgrass",[1]; [13],15
same,Barnyardgrass plant response rating,[1],0
same,"Plant response rating, Ducksalad",[2]; [13],70
same,Ducksalad plant response rating,[2],30
same,"Plant response rating, Rice",[3]; [13],20
same,Rice plant response rating,[3],15
same,"Plant response rating, Sedge, Umbrella",[4]; [13],75
same,"Sedge, Umbrella plant response rating",[4],60
same,"Plant response rating, Wheat",[5]; [14],0
same,Wheat plant response rating,"[5]; Postemergence, 500 g ai/ha",0
same,"Plant response rating, Wheat",[5]; [15],0
same,"Plant response rating, Wheat",[5]; [16],0
same,"Plant response rating, Barnyardgrass",[6]; [14],80
same,Barnyardgrass plant response rating,"[6]; Postemergence, 500 g ai/ha",100
same,"Plant response rating, Barnyardgrass",[6]; [15],0
same,"Plant response rating, Barnyardgrass",[6]; [16],10
same,"Plant response rating, Pigweed",[7]; [14],100
same,Pigweed plant response rating,"[7]; Postemergence, 500 g ai/ha",100
same,"Plant response rating, Pigweed",[7]; [15],0
same,"Plant response rating, Pigweed",[7]; [16],50
same,"Plant response rating, Foxtail, Giant",[8]; [14],0
same,"Foxtail, Giant plant response rating","[8]; Postemergence, 500 g ai/ha",40
same,"Plant response rating, Foxtail, Giant",[8]; [15],0
same,"Plant response rating, Foxtail, Giant",[8]; [16],20
same,"Plant response rating, Crabgrass, Large",[9]; [14],30
same,"Crabgrass, Large plant response rating","[9]; Postemergence, 500 g ai/ha",70
same,"Plant response rating, Crabgrass, Large",[9]; [15],0
same,"Plant response rating, Crabgrass, Large",[9]; [16],10
same,"Plant response rating, Morningglory",[10]; [14],0
same,Morningglory plant response rating,"[10]; Postemergence, 500 g ai/ha",10
same,"Plant response rating, Morningglory",[10]; [15],0
same,"Plant response rating, Corn",[11]; [14],0
same,Corn plant response rating,"[11]; Postemergence, 500 g ai/ha",0
same,"Plant response rating, Corn",[11]; [15],0
same,"Plant response rating, Corn",[11]; [16],20
same,"Plant response rating, Velvetleaf",[12]; [14],90
same,Velvetleaf plant response rating,"[12]; Postemergence, 500 g ai/ha",100
same,"Plant response rating, Velvetleaf",[12]; [15],10
same,"Plant response rating, Velvetleaf",[12]; [16],40
Cc1ccc(Cl)cc1-n1c(-c2cc(F)cc(F)c2)ncc(C(=O)C2=C(O)CCCC2=O)c1=O [Compound 179],"Plant response rating, Flood, Barnyardgrass",[1]; [17],30
same,"Plant response rating, Barnyardgrass",[1]; [18],10
same,"Plant response rating, Barnyardgrass",[1]; [13],20
same,Barnyardgrass plant response rating,[1],0
same,"Plant response rating, Flood, Ducksalad",[2]; [17],100
same,"Plant response rating, Ducksalad",[2]; [18],90
same,"Plant response rating, Ducksalad",[2]; [13],95
same,Ducksalad plant response rating,[2],90
same,"Plant response rating, Flood, Rice",[3]; [17],65
same,"Plant response rating, Rice",[3]; [18],0
same,"Plant response rating, Rice",[3]; [13],25
same,Rice plant response rating,[3],0
same,"Plant response rating, Flood, Sedge, Umbrella",[4]; [17],95
same,"Plant response rating, Sedge, Umbrella",[4]; [18],80
same,"Plant response rating, Sedge, Umbrella",[4]; [13],85
same,"Sedge, Umbrella plant response rating",[4],40
same,"Plant response rating, Wheat",[5]; [14],40
same,Wheat plant response rating,"[5]; Postemergence, 500 g ai/ha",80
same,"Plant response rating, Wheat",[5]; [15],0
same,"Plant response rating, Wheat",[5]; [16],60
same,"Plant response rating, Barnyardgrass",[6]; [14],60
same,Barnyardgrass plant response rating,"[6]; Postemergence, 500 g ai/ha",90
same,"Plant response rating, Barnyardgrass",[6]; [15],0
same,"Plant response rating, Barnyardgrass",[6]; [16],70
same,"Plant response rating, Pigweed",[7]; [14],90
same,Pigweed plant response rating,"[7]; Postemergence, 500 g ai/ha",100
same,"Plant response rating, Pigweed",[7]; [15],50
same,"Plant response rating, Pigweed",[7]; [16],90
same,"Plant response rating, Foxtail, Giant",[8]; [14],40
same,"Foxtail, Giant plant response rating","[8]; Postemergence, 500 g ai/ha",90
same,"Plant response rating, Foxtail, Giant",[8]; [15],10
same,"Plant response rating, Foxtail, Giant",[8]; [16],90
same,"Plant response rating, Crabgrass, Large",[9]; [14],60
same,"Crabgrass, Large plant response rating","[9]; Postemergence, 500 g ai/ha",100
same,"Plant response rating, Crabgrass, Large",[9]; [15],20
same,"Plant response rating, Crabgrass, Large",[9]; [16],100
same,"Plant response rating, Morningglory",[10]; [14],60
same,Morningglory plant response rating,"[10]; Postemergence, 500 g ai/ha",100
same,"Plant response rating, Morningglory",[10]; [15],0
same,"Plant response rating, Morningglory",[10]; [16],40
same,"Plant response rating, Corn",[11]; [14],10
same,Corn plant response rating,"[11]; Postemergence, 500 g ai/ha",80
same,"Plant response rating, Corn",[11]; [15],0
same,"Plant response rating, Corn",[11]; [16],0
same,"Plant response rating, Velvetleaf",[12]; [14],100
same,Velvetleaf plant response rating,"[12]; Postemergence, 500 g ai/ha",100
same,"Plant response rating, Velvetleaf",[12]; [15],50
same,"Plant response rating, Velvetleaf",[12]; [16],100
